Here are results for nine molecules from US20130224239A1, “ALCOHOLIC EXTRACT OF FUNGI OF GENUS […] AND USE THEREOF” (KING SAUD UNIVERSITY, priority 2011, published 2013).

Marks after values point to notes of the source that are not given here.

Assay [1] relates to Aspergillus fumigatus (RCMB 2003). The experiment in a line: Antimicrobial screening, disc diffusion. The format is cell-based. As to conditions: for Diameter of inhibition zone: compounds isolated from Cunninghamella elegans; for zone of inhibition at 1000 µg/mL: RCMB2003, Standard Antibiotics (1 mg/ml), read-out: Diameter of inhibition zone. How it is done:
(§1) The alcoholic extracts obtained were used for testing their antimicrobial activity. Each extract (0.5 g) was dissolved in 10 ml water. Same concentrations for the successive extracts (using diethyl ether, chloroform, ethyl acetate and n-butanol) were also prepared.
(§2) The representatives of Gram negative bacteria, namely Salmonella typhimuium (RCMB 0104), Escherichia coli (RCMB 0103), Pseudomonas aeruginosa (RCMB 0102) and Gram positive bacteria, namely Bacillus subtilis (RCMB 0107), Staphylococcus aureus (RCMB 0106), Streptococcus pyogenes (RCMB 0109), unicellular fungi, namely Candida albicans (RCMB 5002) and filamentous fungi, namely Aspergillus fumigatus (RCMB 2003) and Penicllium expansum (RCMB 1006) were used as test organisms (RCMB: The Regional Center for Mycology and Biotechnology, Al-azhar University Nasser City, Cairo, Egypt).
(§3) For antimicrobial screening the well known disc diffusion and agar well diffusion methods were used, together with the determination of minimum inhibitory concentration (MIC), see Duguid et al., Microbial Infections, The English Language Book Society, Churchill Livingston, Edingburgh, London, 1978; vol. 1, page 110.
(§4) Disc diffusion method: The agar disc diffusion method is employed for the determination of antimicrobial activities of the extracts of the investigated fungal species. Sterilized paper discs (Whatman No. 1) ([…]) were separately soaked in the extracts and transferred onto the surface of growth media seeded with the test organism. After incubation period, following suitable conditions for the test organism, the diameter of the inhibition zone around the discs was measured in millimeters. The obtained result was the mean of three experiments.
(§5) Each fungal species was grown on malt extract media at 28±2° C. for 14 days. The metabolites of the fungal species were screened for antimicrobial activity. The inhibition zones around each disc were measured, in millimeter, and recorded (Tables 1).
(Agar diffusion results depend on both activity and mobility in agar.)

Assay [2] has as its system Bacillus subtilis (RCMB 0107). The experiment in a line: Antimicrobial screening, disc diffusion. The format is cell-based. How it is done:
as §1, §2, §3, §4, §5

Assay [3] has as its system Candida albicans (RCMB 5002). The experiment in a line: Antimicrobial screening, disc diffusion. The format is cell-based. The settings on record: for Diameter of inhibition zone: compounds isolated from Cunninghamella elegans; for zone of inhibition at 1000 µg/mL: RCMB5002, Standard Antibiotics (1 mg/ml), read-out: Diameter of inhibition zone. How it is done:
as §1, §2, §3, §4, §5

Assay [4] concerns Escherichia coli (RCMB 0103). The experiment in a line: Antimicrobial screening, disc diffusion. The assay is classed as cell-based. How it is done:
as §1, §2, §3, §4, §5

In assay [5] the test system is Penicllium expansum (RCMB 1006). The experiment in a line: Antimicrobial screening, disc diffusion. The format is cell-based. The settings on record: Penicillium expansum; for Diameter of inhibition zone: compounds isolated from Cunninghamella elegans; for zone of inhibition at 1000 µg/mL: RCMB1006, Standard Antibiotics (1 mg/ml), read-out: Diameter of inhibition zone. How it is done:
as §1, §2, §3, §4, §5

Assay [6] concerns Pseudomonas aeruginosa (RCMB 0102). The experiment in a line: Antimicrobial screening, disc diffusion. The format is cell-based. The settings on record: Pseudomonas aeurginosa. How it is done: as §1, §2, §3, §4, §5
For assay [7], the system named is Staphylococcus aureus (RCMB 0106). The experiment in a line: Antimicrobial screening, disc diffusion. The assay is classed as cell-based. How it is done:
as §1, §2, §3, §4, §5

In assay [8] the test system is Streptococcus pyogenes (RCMB 0109). The experiment in a line: Antimicrobial screening, disc diffusion. The format is cell-based. How it is done: as §1, §2, §3, §4, §5
In assay [9] the test system is Salmonella typhimuium (RCMB 0104). The experiment in a line: Antimicrobial screening, disc diffusion. The format is cell-based. As to conditions: Salmonella typhimuim. How it is done:
as §1, §2, §3
Disc diffusion method: The agar disc diffusion method is employed for the determination of antimicrobial activities of the extracts of the investigated fungal species. Sterilized paper discs (Whatman No. 1) ([…]) were separately soaked in the extracts and transferred onto the surface of growth media seeded with the test organism. After incubation period, following suitable conditions for the test organism, the diameter of the inhibition zone around the discs was measured in millimeters.
Each fungal species was grown on malt extract media at 28±2° C. for 14 days. The metabolites of the fungal species were screened for antimicrobial activity.

For assay [10], the system named is Staphylococcus aureus infected wounds. The experiment in a line: Wound healing activity, excision wound model. The assay is classed as in vivo, guinea pig. How it is done: Swiss albino mice (20-25 g), male Sprague-Dawley rats (160-180 g) and male guinea pigs (240-260 g) were employed in the study. The animals were left for 2 weeks at room conditions to ensure stabilization before use. They were maintained on standard pellet diet and water ad libitum throughout the experiment. • a) Acute Toxicity: Mice were divided into groups of 6 and the methanol extracts of C. blakesleeana, C. elegans and C. homothallica were administered orally in increasing doses. […] Rats of the 1^St group were given a vehicle (1% v/v Tween 80) in a dose of 5 ml kg^−1 and left as normal control. Rats of the 2nd, 3rd, and 4th groups were administered the methanol extracts of C. blakesleeana, C. elegans and C. homothallica, respectively in a dose of 200 mg kg^−1. All medications were administered orally via the aid of an oral tube for 35 days. […] At the end of the experimental period, blood samples (2 mL) were collected from the retro-orbital venous plexus of each rat (under ether anesthesia) into clean centrifuge tubes. The blood samples were allowed to clot at room temperature for 30 min after which they were centrifuged at 10,000 rpm for 5 minutes. Sera were separate with Pasteur pipette into sterile serum sample tubes and used for biochemical assay.
Measurement of Liver and Kidney Function Markers: • Liver functions were evaluated by measuring the serum activity of aspartate aminotransferase (AST) and alanine aminotransferase (ALT) following the method of Reitman and Frankel, Am. J. Clin. Path., 28: 55-60, alkaline phosphatase enzyme (ALP) by the method of Babson et al., Clinical Chemistry, 12: 482-490. Serum levels of total bilirubin, total proteins and albumin were also assayed. Globulin was obtained from the difference between total proteins and albumin. Serum concentrations of uric acid, urea and creatinine were determined colormetrically as measures of kidney functions. All measurements were carried out by protocols well known in the art. • c) Wound Healing Activity: The excision wound model was used to monitor wound contraction and wound closure time. Four groups of male guinea pigs were used in the experiment with 6 animals in each group. At the beginning of the experiment, the dorsal skin of each guinea pig was shaved with an electric clipper. After 24 hours, all animals were anesthetized by diethyl ether and the shaved areas were sterilized with 70% alcoholic solution. A predetermined dorsal area (15 mm×20 mm) was inflicted by cutting away a full thickness of skin (2 mm depth) using toothed forceps, scalpel and pointed scissors. A fresh surgical blade was used for the perpendicular cut in each animal and tension of skin was kept constant during the procedure. Local infection with Staphylococcus aureus was introduced into wounds using 0.5 mL of 10^8 bacteria mL^−1 inoculums. The wounds were left undressed to the open environment and the animals were kept individually in separate cages. • Wounds treatment: Wounds were air exposed and treatment began 24 h after injury. Wounds of the control animals were treated with the vehicle (1% v/v Tween 80). Guinea pigs of the second and third group were treated with total alcohol extract of C. elegans and the isolated compound (adenosine) in a concentration of 5 mg mL^−1, while animals of the fourth group were medicated with latamoxef (Moxalactam)® in a concentration of 30 μg mL^−1 (Reference group). The vehicle, extract, and reference drug were applied topically on the wound surface once a day for 18 days. […] of each tested material was applied slowly, using an insulin syringe, from the central point extending outside the wound area to ensure inclusion of the edges. Swabs were taken on day 5 to confirm the presence of the expected organisms in the pus. • Assessment of wound healing: The wound areas were measured while the animals were under anaesthesia on days 0, 4, 7, 10, 14, and 18 post-wounding by tracing the wound areas onto a transparent tracing paper. […]

In assay [11] the test system is Staphylococcus aureus. The experiment in a line: Minimum inhibitory concentration, agar well diffusion. As to conditions: against Staphylococcus aureus. The format is cell-based.
Description: as §3
Agar well diffusion method: On the other hand, the agar well diffusion method was employed for determination of the minimum inhibitory concentration (MIC). The test organisms were separately seeded in the agar medium. The wells (10 mm in diameter) were cut from the agar and […] (different concentrations) was transferred into them. After incubation period, following suitable conditions for the test organism, the diameter of the inhibition zone around the discs was measured in millimeters. The obtained result was the mean of three experiments.
The minimum inhibitory concentration (MIC) of Cunninghamella blakesleeana, C. elegans, C. homothallica and successive extracts and isolated compounds of Cunninghamella elegans against Staphylococcus aureus was determined.
Minimum inhibitory concentration (MIC): The lowest concentration of an antimicrobial agent that will inhibit a visible growth of a microorganism after overnight incubation.

Setting [12] is: compounds isolated from Cunninghamella elegans.
Where [13] appears, read: topical 30 μg mL^−1 once a day, n = 6.
[14] abbreviates: topical 30 μg mL^−1 once a day, n = 6, listed as latamoxef.

As to `CCCCCCCCCCCCCCCC(=O)O` [Compound 1, palmitic acid], the “Diameter of inhibition zone” value in [1], in assay [2] (setting [12]), in assay [3], in assay [4] (setting [12]), in [5] and in assay [6] (setting [12]) was 00.0 mm each time. The “Diameter of inhibition zone” value in [7] (setting [12]) is 13.0 mm; in assay [8] (setting [12]), 00.0 mm; in assay [9] (setting [12]) it was 00.0 mm.
On to `CCCCCCCC/C=C\CCCCCCCC(=O)O` [Compound 2, oleic acid], for which the “Diameter of inhibition zone” value in assay [1], in assay [2] (setting [12]), in [3], in assay [4] (setting [12]), in assay [5] and in assay [6] (setting [12]) was 00.0 mm in each case. In addition, the “Diameter of inhibition zone” value in assay [7] (setting [12]) worked out at 11.0 ± 0.3 mm; in assay [8] (setting [12]), 00.0 mm; in assay [9] (setting [12]), 00.0 mm.
For `CC1(C)S[C@@H]2[C@H](NC(=O)Cc3ccccc3)C(=O)N2[C@H]1C(=O)O` [Penicillin G, reference compound], the “Diameter of inhibition zone” value turned out to be 32.5 ± 0.5 mm in assay [2] (Standard Antibiotics (1 mg/ml)); 33.5 ± 0.8 mm in assay [4] (Standard Antibiotics (1 mg/ml)); 28.3 ± 0.1 mm in [6] (Standard Antibiotics (1 mg/ml)); 29.5 ± 0.8 mm in assay [7] (Standard Antibiotics (1 mg/ml)); 31.4 ± 0.1 mm in [8] (Standard Antibiotics (1 mg/ml)); 34.3 ± 0.4 mm in [9] (Standard Antibiotics (1 mg/ml)).
In general, zone of inhibition refers to the extent of the growth-free halo in a diffusion test. Turning to `Clc1ccccc1C(c1ccccc1)(c1ccccc1)n1ccnc1` [Clotrimazole, reference compound], the zone of inhibition at 1000 µg/mL in [1] was determined as 26 ± 0.1 mm; in assay [3], 18 ± 0.1 mm; in [5], 23 ± 0.3 mm.
In the case of `CO[C@@]1(NC(=O)C(C(=O)O)c2ccc(O)cc2)C(=O)N2C(C(=O)O)=C(CSc3nnnn3C)CO[C@@H]21` (stereo partly drawn) [Latamoxef, latamoxef, reference compound], in [10] (Day 14, topical 30 μg mL^−1), the wound contraction is 100%. For the same molecule, the “Wound area on day 0” value in assay [10] (day 0, topical 30 μg mL^−1 once a day, n = 6) amounted to 300 ± 0.0 mm^2. Further, in assay [10] (day 4, topical 30 μg mL^−1 once a day, n = 6), the “Wound area on day 4” value is on record as 219.4 ± 9.37** mm^2. In addition, in assay [10] (day 7, topical 30 μg mL^−1 once a day, n = 6), the “Wound area on day 7” value is on record as 146.4 ± 5.60*** mm^2. Moreover, the “Wound area on day 10” value in [10] (setting [13]) was 42.6 ± 1.85*** mm^2; in [10] (setting [14]) it was 42.6±1.85 mm^2. Further, the “Wound area on day 14” value in assay [10] (setting [13]) is reported as 0.0 ± 0.0 mm^2; in assay [10] (setting [14]) it was 0.0 mm^2.
Turning to `CCC(C)n1ncn(-c2ccc(N3CCN(c4ccc(OCC5COC(Cn6cncn6)(c6ccc(Cl)cc6Cl)O5)cc4)CC3)cc2)c1=O` (stereo not drawn) [Itraconazole, reference compound], the zone of inhibition at 1000 µg/mL in assay [1] was determined as 28 ± 0.5 mm; in [3] it was 26 ± 0.2 mm; in assay [5] it was 27 ± 0.1 mm.
For the molecule `[H]/N=C(/N)N[C@H]1[C@H](O)[C@@H](O)[C@H](O[C@@H]2O[C@@H](C)[C@](O)(C=O)[C@H]2O[C@@H]2O[C@@H](CO)[C@H](O)[C@@H](O)[C@@H]2NC)[C@@H](N/C(N)=N\[H])[C@@H]1O` [Streptomycin, reference compound], the “Diameter of inhibition zone” value in [2] (Standard Antibiotics (1 mg/ml)) is 29.0 ± 0.4 mm; in assay [4] (Standard Antibiotics (1 mg/ml)), 25.0 ± 0.3 mm; in [6] (Standard Antibiotics (1 mg/ml)), 24.0 ± 0.1 mm; in assay [7] (Standard Antibiotics (1 mg/ml)), 25.0 ± 0.2 mm; in assay [8] (Standard Antibiotics (1 mg/ml)), 24.0 ± 0.4 mm; in assay [9] (Standard Antibiotics (1 mg/ml)), 28.0 ± 0.3 mm.
As to Gentamicin [reference compound], the Minimum inhibitory concentration in assay [11] came out at 0.35 µg/mL.
With `CCCCCCCCCCCCCCCCCC(=O)O` [Compound 3, stearic acid], the “Diameter of inhibition zone” value in [1], in [2] (setting [12]), in assay [3], in [4] (setting [12]), in [5] and in assay [6] (setting [12]) was 00.0 mm throughout. Moreover, the “Diameter of inhibition zone” value in assay [7] (setting [12]) is recorded as 15.0 ± 0.5 mm; in [8] (setting [12]), 00.0 mm; in assay [9] (setting [12]) it was 00.0 mm.
